In patent publication US20040018501A1, “Methods and systems for analyzing complex biological systems” (priority 2001, published 2004):
“Also recorded” adds a separate entry of the source.

How the values were obtained:
[1] = test system: Arabidopsis thaliana plants; test: SOA1 phenotypic analysis of herbicide-treated plants; assay type: in vivo; conditions: for characteristic symptoms (phenotype): herbicide-treated plants; for Symptom Class: three-week-old plants, foliar spray
[2] = test system: Saccharomyces cerevisiae wild type strain BY4743; test: AF1 yeast metabolite analysis by GC-MS and LC-MS; assay type: cell-based
Arabidopsis thaliana [3] = test: MOA1 gene expression profiling (22,000-gene microarray); conditions: for No. of Lethal Genes Altered: regulated genes compared to internal list of essential genes
Arabidopsis thaliana [4] = test: MOA1 biochemical (metabolite) profiling by LC-MS and GC-MS; conditions: for stress-related metabolites: within one hour after spraying
Magnaporthe grisea = assay type: cell-based
[5] = numeric value standardized to mock treated

c1cc[n+]2c(c1)-c1cccc[n+]1CC2 [Diquat]
characteristic symptoms (phenotype) [1]: rapid and widespread leaf necrosis
tMic Dev. [1, 5]: 2
Symptom Class [1]: 7

OC(Cn1cncn1)(Cn1cncn1)c1ccc(F)cc1F [Fluconazole]
Fold Change of TMS mevalonic acid lactone ([2]; GC): 0.1434
Fold Change of squalene ([2]; GC): 0.1999
Fold Change of tetradecanoic acid ([2]; GC): 0.07967
Fold Change of threonine2 ([2]; GC): 0.5053
Fold Change of threonine3 ([2]; GC): 0.2513
Fold Change of tms glutamine3 ([2]; GC): 0.7271
Fold Change of tms lysine4 ([2]; GC): 0.3657
Fold Change of tms tyrosine2 ([2]; GC): 0.8643
Fold Change of tms tyrosine3 ([2]; GC): 0.3321
Fold Change of valine ([2]; GC): 0.2727
Fold Change of retinoic acid ([2]; nLC): 0
Fold Change of salicylic/HObenzoic ([2]; nLC): 0
Fold Change of selenoDLmethionine ([2]; nLC): −0.5748
Fold Change of serine ([2]; nLC): 0.3936
Fold Change of shikimic acid ([2]; nLC): 0
Fold Change of sinapinic acid ([2]; nLC): 0
Fold Change of sorbitol/mannitol ([2]; nLC): 0.365
Fold Change of succinic ([2]; nLC): 0.3094
Fold Change of sucrose ([2]; nLC): 0.3104
Fold Change of sugar-phosphate ([2]; nLC): −0.05306
Fold Change of tetradecanoic acid ([2]; nLC): 0.5495
Fold Change of threonine/homoserin ([2]; nLC): 0.3257
Fold Change of thymine ([2]; nLC): 0
Fold Change of tryptophan ([2]; nLC): 1.649
Fold Change of tyrosine ([2]; nLC): 0.2303
Fold Change of uracil ([2]; nLC): 1.256
Fold Change of uridine ([2]; nLC): 0.3463
Fold Change of urocanic acid ([2]; nLC): 0
Fold Change of valine ([2]; nLC): 0.3235
Fold Change of xanthosineDiH2O ([2]; nLC): 0
Fold Change of zeatin ([2]; nLC): 0
Fold Change of riboflavin ([2]; pLC): 0
Fold Change of selenoDLmethionine ([2]; pLC): −0.6865
Fold Change of serine ([2]; pLC): 0.11
Fold Change of sugar-phosphate ([2]; pLC): 0
Fold Change of thiamine ([2]; pLC): 0
Fold Change of threonine/homoserin ([2]; pLC): 0.1604
Fold Change of thymine ([2]; pLC): 0
Fold Change of tryptophan ([2]; pLC): 0
Fold Change of tyrosine ([2]; pLC): 0.1099
Fold Change of uric acid ([2]; pLC): 0
Fold Change of urocanic acid ([2]; pLC): 0
Fold Change of xanthosine(diH2O) ([2]; pLC): 0
Fold Change of zeatin ([2]; pLC): 0
Fold Change of campesterol ([2]; platform GC): 0
Fold Change of desmosterol ([2]; platform GC): 0
Fold Change of octadecanoic acid ([2]; platform GC): 0.082
Fold Change of abscisic acid ([2]; platform LC): 0
Fold Change of adenosine ([2]; platform LC): 0
Fold Change of 4-methylcatechol ([2]; platform nLC): 0
Fold Change of 5hydroxyLtryptophan ([2]; platform nLC): 0
Fold Change of 6-benzylaminopurine ([2]; platform nLC): 0
Fold Change of NacetylDglucosamine ([2]; platform nLC): 0
Fold Change of NacetylLornithine ([2]; platform nLC): 0
Fold Change of abscisic acid ([2]; platform nLC): 0
Fold Change of adenine ([2]; platform nLC): 0
Fold Change of adenosine ([2]; platform nLC): 0
Fold Change of anthranilic acid ([2]; platform nLC): 0
Fold Change of argininosuccinate ([2]; platform nLC): 0
Fold Change of benzoic acid ([2]; platform nLC): 0
Fold Change of catechol ([2]; platform nLC): 0
Fold Change of cinnamic acid ([2]; platform nLC): 0
Fold Change of citricanoic/itaconi ([2]; platform nLC): 0
Fold Change of citrulline ([2]; platform nLC): 0
Fold Change of coumaric acid ([2]; platform nLC): 0
Fold Change of cytosine ([2]; platform nLC): 0
Fold Change of diaminopimelic acid ([2]; platform nLC): 0
Fold Change of dihydrofolic acid ([2]; platform nLC): 0
Fold Change of estrone ([2]; platform nLC): 0
Fold Change of farnesol ([2]; platform nLC): 0
Fold Change of folic acid ([2]; platform nLC): 0
Fold Change of gibberellic ([2]; platform nLC): 0
Fold Change of glutamine/lysine ([2]; platform nLC): 0.3309
Fold Change of guanine ([2]; platform nLC): 0
Fold Change of histidine ([2]; platform nLC): 0
Fold Change of homogentisic/uric ([2]; platform nLC): 0
Fold Change of hydrocortisone ([2]; platform nLC): 0
Fold Change of indole3pyruvic acid ([2]; platform nLC): 0
Fold Change of jasmonic acid ([2]; platform nLC): 0
Fold Change of kinetin ([2]; platform nLC): 0
Fold Change of luteolin ([2]; platform nLC): 0
Fold Change of malonic acid ([2]; platform nLC): 0
Fold Change of methionine ([2]; platform nLC): 0
Fold Change of orotic acid ([2]; platform nLC): 0
Fold Change of phenylpyruvic acid ([2]; platform nLC): 0
Fold Change of phosphoenolpyruvate ([2]; platform nLC): 0
Fold Change of pinitol ([2]; platform nLC): 0
Fold Change of porphobilinogen ([2]; platform nLC): 0
Fold Change of 4-aminobenzoic acid ([2]; platform pLC): 0
Fold Change of 4-methylcatechol ([2]; platform pLC): 0
Fold Change of 5hydroxyLtryptophan ([2]; platform pLC): 0
Fold Change of 6benzylaminopurine ([2]; platform pLC): 0
Fold Change of NacetylDglucosamine ([2]; platform pLC): 0
Fold Change of NacetylLglutamate ([2]; platform pLC): 0
Fold Change of allantoic acid ([2]; platform pLC): 0
Fold Change of anthranilic acid ([2]; platform pLC): 0
Fold Change of argininosuccinate ([2]; platform pLC): 0
Fold Change of biotin ([2]; platform pLC): 0
Fold Change of caffeine ([2]; platform pLC): 0
Fold Change of citric acid TME ([2]; platform pLC): 0
Fold Change of cytidine ([2]; platform pLC): 0
Fold Change of cytosine ([2]; platform pLC): 0
Fold Change of diaminopimelic acid ([2]; platform pLC): 0
Fold Change of dihydrofolic acid ([2]; platform pLC): 0
Fold Change of dipicolinic acid ([2]; platform pLC): 0
Fold Change of folic acid ([2]; platform pLC): 0
Fold Change of glucosamine ([2]; platform pLC): 0
Fold Change of glucosamine6PO4 ([2]; platform pLC): 0
Fold Change of histidine ([2]; platform pLC): 0
Fold Change of hydrocortisone ([2]; platform pLC): 0
Fold Change of itaconic acid dimes ([2]; platform pLC): 0
Fold Change of kinetin ([2]; platform pLC): 0
Fold Change of luteolin ([2]; platform pLC): 0
Fold Change of niacinamide ([2]; platform pLC): 0
Fold Change of nopaline ([2]; platform pLC): 0
Fold Change of phosphoenolpyruvate ([2]; platform pLC): 0
Fold Change of progesterone ([2]; platform pLC): 0

COC(=O)NS(=O)(=O)c1ccc(N)cc1 [Asulam]
No. of Lethal Genes Altered (Arabidopsis thaliana [3]): 5

CC(C)C1(C)N=C(c2ncccc2C(=O)O)NC1=O (stereo not shown) [Imazapyr]
characteristic symptoms (phenotype) [1]: anthocyanin accumulation in the older leaves accompanied by chlorosis of the newly emerging leaves

O=C(O)COc1ccc(Cl)cc1Cl [2,4-D]
tMic Dev. [1, 5]: 2
Symptom Class [1]: 5

COc1nc(C)nc(NC(=O)NS(=O)(=O)c2ccccc2Cl)n1 [Chlorsulfuron]
No. of Lethal Genes Altered (Arabidopsis thaliana [3]): 8
characteristic symptoms (phenotype) [1]: anthocyanin accumulation in the older leaves accompanied by chlorosis of the newly emerging leaves

CN(C)C(=O)Nc1ccc(Cl)c(Cl)c1 [Diuron]
characteristic symptoms (phenotype) [1]: rapid and widespread leaf necrosis
newLeafAnthocyanins Dev. [1, 5]: newLeafAnthocyanins 0
tMic Dev. [1, 5]: 1
Symptom Class [1]: 7

CC(C)OC(=O)Nc1cccc(Cl)c1 [Chloropropham]
stress-related metabolites (Arabidopsis thaliana [4]): neither butylate nor chlorpropham treatment resulted in many changes

COC(=O)c1cc(Oc2ccc(Cl)cc2Cl)ccc1[N+](=O)[O-] [Bifenox]
characteristic symptoms (phenotype) [1]: Necrotic leaf flecks

CCSC(=O)N(CC(C)C)CC(C)C [Butylate]
stress-related metabolites (Arabidopsis thaliana [4]): neither butylate nor chlorpropham treatment resulted in many changes

CC(C)N1C(=O)c2ccccc2NS1(=O)=O [Bentazon]
characteristic symptoms (phenotype) [1]: rapid and widespread leaf necrosis

CC(=O)N1CCN(c2ccc(OCC3COC(Cn4ccnc4)(c4ccc(Cl)cc4Cl)O3)cc2)CC1 (stereo not shown) [Ketoconazole]
# Compounds perturbed ([2]; P < 0.1, 2×MIC, two hours): 15

CP(=O)(O)CCC(N)C(=O)O (stereo not shown) [Glufosinate]
No. of Lethal Genes Altered (Arabidopsis thaliana [3]): 10
characteristic symptoms (phenotype) [1]: Chlorosis and leaf curling
tMic Dev. [1, 5]: 1
Symptom Class [1]: 3

Nc1nc[nH]n1 [Amitrole]
characteristic symptoms (phenotype) [1]: leaf bleaching and leaf enlargement

CS(=O)(=O)c1cc(C(F)(F)F)ccc1C(=O)c1cnoc1C1CC1 [Isoxaflutole]
Alpha-tocopherol levels relative to the control (Arabidopsis thaliana [4]; early time points): not significantly changed
tyrosine and phenylalanine relative to the control (Arabidopsis thaliana [4]; early time points (up to 1 hour)): up-regulated; also recorded: began to accumulate
alterations in the expression of genes involved in the homogentisate biosynthetic pathway (Arabidopsis thaliana [3]; 1 hr): not observed
No. of Lethal Genes Altered (Arabidopsis thaliana [3]): 15

CCc1cnc(C2=NC(C)(C(C)C)C(=O)N2)c(C(=O)O)c1 (stereo not shown) [Imazethapyr]
characteristic symptoms (phenotype) [1]: anthocyanin accumulation in the older leaves accompanied by chlorosis of the newly emerging leaves

CC[C@@H]([C@H](C)O)n1ncn(-c2ccc(N3CCN(c4ccc(OC[C@@H]5CO[C@@](Cn6cncn6)(c6ccc(F)cc6F)C5)cc4)CC3)cc2)c1=O [Posaconazoie]
Fold Change of luteolin ([2]; LC): 0

O=C(O)c1cc(Oc2ccc(C(F)(F)F)cc2Cl)ccc1[N+](=O)[O-] [Acifluorfen]
characteristic symptoms (phenotype) [1]: Necrotic leaf flecks

CCNc1nc(Cl)nc(NC(C)C)n1 [Atrazine]
characteristic symptoms (phenotype) [1]: rapid and widespread leaf necrosis

CSc1nnc(C(C)(C)C)c(=O)n1N [Metribuzin]
characteristic symptoms (phenotype) [1]: rapid and widespread leaf necrosis

C[n+]1ccc(-c2cc[n+](C)cc2)cc1 [Paraquat]
characteristic symptoms (phenotype) [1]: rapid and widespread leaf necrosis
Symptom Class [1]: 7

O=C(O)c1ccccc1C(=O)Nc1cccc2ccccc12 [Naptalam]
No. of Lethal Genes Altered (Arabidopsis thaliana [3]): 3

CC[C@@H]([C@H](C)O)n1ncn(-c2ccc(N3CCN(c4ccc(OC[C@@H]5CO[C@@](Cn6cncn6)(c6ccc(F)cc6F)C5)cc4)CC3)cc2)c1=O [Posaconazote]
Fold Change, porphobilinogen ([2]; detected metabolite porphobilinogen, platform nLC): 0

O=C(O)CNCP(=O)(O)O [Glyphosate]
Number of Metabolites Changed: Total # (Arabidopsis thaliana [4]; 20 min, p < 0.05): 4
tyrosine (downstream of SOA) relative to the control (Arabidopsis thaliana [4]; after one hour): decreased
growth inhibition with aromatic amino acids included in the media (Magnaporthe grisea; 1.0 mg/ml): remediated
growth of M. grisea (Tier 4) (Magnaporthe grisea; ammonium or glutamine as nitrogen source): Little growth defect
characteristic symptoms (phenotype) [1]: anthocyanin accumulation in the older leaves accompanied by chlorosis of the newly emerging leaves
tMic Dev. [1, 5]: 2
Symptom Class [1]: 4
